Measured values as given in patent US7649008B2, “Crystal of benzimidazole derivative and process for producing the same” (priority 2003, dated 2010).
“Also recorded” adds a separate entry of the source.

Assays:
[1] = Solubility of the crystal forms in the solvent; type: physicochemical; conditions: qualitative, solvent not given
[2] = Relative stability of the crystal forms; type: physicochemical; conditions: four kinds of crystals excluding the solvate
[3] = Absorptivity of the crystal forms; conditions: qualitative
[4] = Storage stability of the crystal forms; type: physicochemical; conditions: qualitative

| absorptivity [3] | storage stability [4] | solubility in the solvent ([1]; hydrate) | Compound | solubility in the solvent [1] | stability (rank order of crystal forms) [2] |
| --- | --- | --- | --- | --- | --- |
| comparatively excellent | excellent | – | Cc1cccc2scc(Cn3c(SCCCC(=O)O)nc4ccccc43)c12 [crystal A, 4-(1-((4-methylbenzothiophen-3-yl)methyl)benzimidazol-2-ylthio)butanoic acid] | becomes higher in this order; also recorded: excellent | becomes lower in the order of crystal D, crystal B, crystal A and crystal E |
| – | excellent | – | Cc1cccc2scc(Cn3c(SCCCC(=O)O)nc4ccccc43)c12 [crystal D, 4-(1-((4-methylbenzothiophen-3-yl)methyl)benzimidazol-2-ylthio)butanoic acid] | becomes higher in this order; also recorded: drastically poor | becomes lower in the order of crystal D, crystal B, crystal A and crystal E |
| – | excellent | – | Cc1cccc2scc(Cn3c(SCCCC(=O)O)nc4ccccc43)c12 [crystal B, 4-(1-((4-methylbenzothiophen-3-yl)methyl)benzimidazol-2-ylthio)butanoic acid] | becomes higher in this order | becomes lower in the order of crystal D, crystal B, crystal A and crystal E |
| comparatively excellent | excellent | – | Cc1cccc2scc(Cn3c(SCCCC(=O)O)nc4ccccc43)c12 [crystal E, 4-(1-((4-methylbenzothiophen-3-yl)methyl)benzimidazol-2-ylthio)butanoic acid] | becomes higher in this order; also recorded: excellent | becomes lower in the order of crystal D, crystal B, crystal A and crystal E |
| comparatively excellent | excellent | excellent | Cc1cccc2scc(Cn3c(SCCCC(=O)O)nc4ccccc43)c12 [hydrate crystal, 4-(1-((4-methylbenzothiophen-3-yl)methyl)benzimidazol-2-ylthio)butanoic acid hydrate] | – | – |
